Laboratory results as given in patent publication US10064843B2, “Bis-amide derivative and use thereof” (University-Industry Cooperation Group of Kyung Hee …, priority 2013, dated 2018).

How the values were obtained:
CypA = biological target: T1, CypA (Homo sapiens, UniProt P62937); test: PPIase activity of CypA, coupled chymotrypsin analysis; assay type: biochemical; conditions: FIG. 7a; read-out: IC50 PPIase activity of CypA
T1 construct: GST (N, cleaved yes); made in house; host or cells: E. coli (pGEX-KG)
T1 sequence (P62937 whole entry): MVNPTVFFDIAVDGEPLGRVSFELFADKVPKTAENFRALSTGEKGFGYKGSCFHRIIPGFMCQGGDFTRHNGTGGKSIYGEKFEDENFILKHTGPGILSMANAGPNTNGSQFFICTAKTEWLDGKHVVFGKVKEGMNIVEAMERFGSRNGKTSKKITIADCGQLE
Procedure: Example 5: Analysis of Peptidyl-Prolyl Cis-Trans Isomerase Activity
The PPIase activity of CypA was determined according to a known method using the coupled chymotrypsin analysis.
The cis-trans isomerization was measured by absorbance at 390 nm in a spectrophotometer. Additionally, the remaining percentage of enzyme activity was measured at different concentrations of the inhibitor to calculate the 50% inhibition concentration (IC50) to the PPIase activity. Data was optimized via graphs by exporting using Graph Pad Prism 5.

HCV replicon cells = test: Luciferase activity in HCV replicon cells; assay type: cell-based; conditions: Hepatitis C virus; 2 μM, 72 hours; FIG. 6; read-out: inhibition of luciferase activity of HCV
Procedure: Additionally, a series of compounds (WJCPA-1 to WJCPA-135) having the bis-amide structure as a parent structure in common, based on the inhibitory effect of WJCPA-126 against the PPIase activity, were synthesized and their activities were confirmed. Specifically, Huh7-rep cells were treated with each of the compounds at a concentration of 2 μM for 3 days, and the expression level of NS5A was confirmed by performing an immunoblot analysis according to a known method (FIG. 5). The 32 kinds of compounds confirmed to have excellent inhibitory effect especially against the NS5A expression from the immunoblot experiment were measured regarding their inhibitory effect against luciferase activity and the results are illustrated in FIG. 6. In the same manner as in western blot, the HCV replicon cells were treated with each of the compounds at a concentration of 2 μM and incubated for 72 hours, and the total cell lysate of the cultured cells were used for the analyses of western blot and the activity of luciferase.

| Compound | IC50 (CypA) | inhibition at 2 µM (HCV replicon cells) |
| --- | --- | --- |
| COc1ccc(CCC(=O)N(c2ccc(Br)cc2)C(C(=O)NC2CCCCC2)c2ccc([N+](=O)[O-])cc2)cc1 (stereo not drawn) [WJCPA133, N-(4-bromo-phenyl)-N-[cyclohexylcarbamoyl-(4-nitro-phenyl)-methyl]-3-(4-methoxy-phenyl)-propionamide] | 11.2 nM |  |
| Cc1ccc(C)c(C(=O)N(c2ccc(C(C)C)cc2)C(C(=O)NC2CCCCC2)c2ccc(Cl)cc2)c1 (stereo not drawn) [WJCPA30, N-[(4-chloro-phenyl)-cyclohexylcarbamoyl-methyl]-N-(4-isopropyl-phenyl)-2,5-dimethyl-benzamide] | 10.6 nM | ≤ 80% |
